Patent US7816409B2, “Stable pharmaceutical composition of fluoroether compound for anesthetic use method for stabilizing a fluoroether compound, use of stabilizer agent for precluding the degradation of a fluoroether compound” (Cristalia Productos Quimicos Farmaceuticos LTDA, priority 2003, dated 2010)
Blank lines part the entries; values can stand above or below the compound they belong to.

Tests used:
[1] = Stress degradation of sevoflurane with or without alumina, gas chromatography with toluene internal standard; type: physicochemical
Experimental: In the following examples, all analyses by gas chromatography were carried out by adding 2 μL of toluene (internal standard) in 10 mL of sample of sevoflurane in study. The analysis was done in duplicates and for each chromatogram obtained was calculated the ratio of the area of each impurity/area of toluene.
In two type III glass bottle with capacity of 100 mL, was added 20 mL of anhydrous sevoflurane and in one of the bottles was added 20 mg of alumina totalizing 1.0 mg of Al2O3 per mL of sevoflurane. Both bottles were closed with a stopper and screw metallic cap and heated in a stove at 60° C. for 22 hours. After that period, the samples were analyzed in duplicates by gas chromatography using the internal standard addition method (toluene). […] The degradation products of sevoflurane monitored by gas chromatography, HFIP, Acetal, 2, 5, 7 and 8, are present in high amounts in the samples of sevoflurane containing alumina after heating, as presented in FIG. 4.
The samples were prepared and placed in type III glass bottle and the bottles were closed with stopper and screw metallic cap.
The samples were submitted to two stress conditions by heating in stove at 60° C. for a cycle of 22 hours and other of 72 hours.
The sample was prepared to contain 0, 50, 200, 600, 1000 and 1400 ppm of the stabilizer agent. […] The study comprises put sevoflurane in contact with an acid substance, submits the samples to a stress by heating at 60° C. for 22 hours and, by comparison evaluates the chromatographic purity of sevoflurane after stress. The activated alumina was employed as acid substance in a constant quantity of 1 mg per mL of sevoflurane.
In type III glass bottle with capacity for 100 mL was transferred 20 mL of test sevoflurane containing determined quantities of the stabilizer agent (0, 50, 200, 600, 1000 and 1400 ppm) and 20 mg of alumina. The bottles were immediately closed with a stopper and a screw metallic cap. These bottles were heated in a stove at 60° C. for 22 hours. After the stress the samples were analyzed in duplicate by gas chromatography using the internal standard addition method (toluene). In parallel, studies were done with the quantity determined of the stabilizer (0, 50, 200, 600, 1000 and 1400 ppm) without alumina.
Table 2 resumes the tests realized with the agents propylene glycol and menthol proposed for the stabilization of sevoflurane against the degradation by alumina and the results for total impurity and for the single impurity HFIP obtained with and without alumina after stress at 60° C. for 22 hours. The total impurity is the sum of the ratio between the area for each impurity and the area of the internal standard (toluene) and HFIP is the ratio between the area of HFIP and the area of toluene obtained in the chromatograms.

[2] = Saturation level / solubility of stabilizer in sevoflurane
Excerpt: The stabilizer agent for the fluoroether compound, and most particularly for the sevoflurane, is employed in concentration ranging from 0.001% in weight in relation to the weight of sevoflurane until its level of saturation in the sevoflurane, that is, the maximum concentration in which it keeps soluble in the sevoflurane. The amount of stabilizer agent to achieve its saturation depends on the stabilizer and temperature, and can be high due to the solubility profile among these substances.
Among the appropriate polyalcohols to the stabilization of the fluoroether compound sevoflurane, propylene glycol, polyethylene glycol, hexylene glycol and 1,3-butileneglycol are chosen. […] As cited before, the amount of the stabilizer agent will range from 0.001% in weight until its saturation level in sevoflurane. […] Therefore, in a general way, the polyalcohols are preferably employed in amounts ranging from 0.001% to 5.0% in weight in relation to the weight of sevoflurane.

[3] = Limit of fluoride in sevoflurane after stress with alumina; type: physicochemical
Experimental: (§1) In this study alumina was employed in a final concentration of 1 mg per mL of sevoflurane.
Another important factor observed in the present study is the quantity of fluoride in the sample submitted to stress.
(§2) Alumina was employed in a final concentration of 1 mg per mL of sevoflurane.

[4] = Chromatographic purity and impurities of sevoflurane after stress with alumina (Pharmacopeial Forum USP specifications); type: physicochemical; conditions: for degradation of sevoflurane by alumina: Example 5, 260 ppm stabilizer
Experimental: as §1, §2

[5] = anhydrous sevoflurane, stabilizer 0 ppm, 60° C. for 22 hours, 0 mg of Al2O3
[6] = anhydrous sevoflurane, stabilizer 0 ppm, 60° C. for 22 hours, 20 mg of Al2O3
[7] = anhydrous sevoflurane, stabilizer 50 ppm, 60° C. for 22 hours, 0 mg of Al2O3
[8] = anhydrous sevoflurane, stabilizer 50 ppm, 60° C. for 22 hours, 20 mg of Al2O3
[9] = anhydrous sevoflurane, stabilizer 200 ppm, 60° C. for 22 hours, 0 mg of Al2O3
[10] = anhydrous sevoflurane, stabilizer 200 ppm, 60° C. for 22 hours, 20 mg of Al2O3
[11] = anhydrous sevoflurane, stabilizer 600 ppm, 60° C. for 22 hours, 0 mg of Al2O3
[12] = anhydrous sevoflurane, stabilizer 600 ppm, 60° C. for 22 hours, 20 mg of Al2O3
[13] = anhydrous sevoflurane, stabilizer 1000 ppm, 60° C. for 22 hours, 0 mg of Al2O3
[14] = anhydrous sevoflurane, stabilizer 1000 ppm, 60° C. for 22 hours, 20 mg of Al2O3
[15] = anhydrous sevoflurane, stabilizer 1400 ppm, 60° C. for 22 hours, 0 mg of Al2O3
[16] = anhydrous sevoflurane, stabilizer 1400 ppm, 60° C. for 22 hours, 20 mg of Al2O3
[17] = Table 5, sevoflurane with 260 ppm stabilizer, alumina 1 mg per mL, 60° C. for 22 hours
[18] = Table 6, sevoflurane with water 260 ppm or PG + water 260:260 ppm, alumina 1 mg per mL, 60° C. for 22 hours
[19] = alumina 1 mg per mL, 60° C. for 22 hours
[20] = Table 4, sevoflurane with 260 ppm stabilizer, alumina 1 mg per mL, 60° C. for 22 hours
[21] = Table 6, initial analysis of anhydrous sevoflurane before stress
[22] = Table 4, initial analysis of anhydrous sevoflurane before stress
[23] = sevoflurane, stabilizer 50 ppm, stress at 60° C. for 12 hours, 0 mg of Al2O3
[24] = sevoflurane, stabilizer 50 ppm, stress at 60° C. for 12 hours, 20 mg of Al2O3

Compound: CC1CCC(C(C)C)C(O)C1 (stereo not drawn) [MENTHOL, (1 alpha, 2 beta, 5 alpha)-5-methyl-2-(1-methylethyl)cyclohexanol]
- HFIP (average ratio area of HFIP/area of toluene) [1, 5]: 0.0408
- Total Impurity (average sum of ratios area of each impurity/area of toluene) [1, 5]: 0.3083
- HFIP (average ratio area of HFIP/area of toluene) [1, 6]: 0.8914
- Total Impurity (average sum of ratios area of each impurity/area of toluene) [1, 6]: 37.5478
- HFIP (average ratio area of HFIP/area of toluene) [1, 7]: 0.04541
- Total Impurity (average sum of ratios area of each impurity/area of toluene) [1, 7]: 0.3174
- HFIP (average ratio area of HFIP/area of toluene) [1, 8]: 0.6402
- Total Impurity (average sum of ratios area of each impurity/area of toluene) [1, 8]: 1.0412
- HFIP (average ratio area of HFIP/area of toluene) [1, 9]: 0.04228
- Total Impurity (average sum of ratios area of each impurity/area of toluene) [1, 9]: 0.2918
- HFIP (average ratio area of HFIP/area of toluene) [1, 10]: 0.5880
- Total Impurity (average sum of ratios area of each impurity/area of toluene) [1, 10]: 1.0773
- HFIP (average ratio area of HFIP/area of toluene) [1, 11]: 0.04445
- Total Impurity (average sum of ratios area of each impurity/area of toluene) [1, 11]: 0.3319
- HFIP (average ratio area of HFIP/area of toluene) [1, 12]: 0.4426
- Total Impurity (average sum of ratios area of each impurity/area of toluene) [1, 12]: 1.0001
- HFIP (average ratio area of HFIP/area of toluene) [1, 13]: 0.04669
- Total Impurity (average sum of ratios area of each impurity/area of toluene) [1, 13]: 0.3627
- HFIP (average ratio area of HFIP/area of toluene) [1, 14]: 0.3787
- Total Impurity (average sum of ratios area of each impurity/area of toluene) [1, 14]: 0.9486
- HFIP (average ratio area of HFIP/area of toluene) [1, 15]: 0.04325
- Total Impurity (average sum of ratios area of each impurity/area of toluene) [1, 15]: 0.3644
- HFIP (average ratio area of HFIP/area of toluene) [1, 16]: 0.3329
- Total Impurity (average sum of ratios area of each impurity/area of toluene) [1, 16]: 1.0156
- saturation level in sevoflurane [2]: about 6.8%

Compound: O [Water]
- Limit of fluoride [3, 17]: 16.950 µg/mL
- Limit of fluoride [3, 18]: 15.340 µg/mL
- water content from which degradation of sevoflurane by alumina is inhibited ([1]; Example 2, alumina 1 mg per mL, 60° C.): ≥ 600 ppm
- degradation of sevoflurane by alumina ([1]; Example 4, 50 ppm stabilizer, alumina 1 mg per mL): incapable to completely inhibit
- increase of impurity HFIP value in relation to the sample without alumina ([1]; sevoflurane containing water, with alumina): about 10 times
- degradation of sevoflurane by alumina [4, 19]: didn't inhibit the degradation
- Compound A [4, 20]: 11.8 µg/g
- Purity [4, 20]: 99.8944%
- Single impurity [4, 20]: 403 µg/g
- Total Impurity [4, 20]: 1056.1 µg/g
- Purity [4, 18]: 99.8899%
- Single impurity [4, 18]: 422.8 µg/g
- Total impurities [4, 18]: 1101.3 µg/g

Compound: PEG 400
- solubility in sevoflurane [2]: freely soluble

More lines, now with the values ahead:

- Limit of fluoride ([3]; Table 5, initial analysis of anhydrous sevoflurane before stress): 0.050 µg/mL
- Limit of fluoride [3, 21]: 0.072 µg/mL
- Compound A [4, 22]: 11.2 µg/g
- Purity [4, 22]: 99.9798%
- Single impurity [4, 22]: 63.7 µg/g
- Total Impurity [4, 22]: 201.8 µg/g
- Purity [4, 21]: 99.9907%
- Single impurity [4, 21]: 42.1 µg/g
- Total impurities [4, 21]: 93.0 µg/g
Compound: FCOC(C(F)(F)F)C(F)(F)F [Anhydrous Sevoflurane, fluoromethyl 2,2,2-trifluoro-1-(trifluoromethyl)ethyl ether]

- Limit of fluoride [3, 17]: 0.051 µg/mL
- HFIP (average ratio area of HFIP/area of toluene) [1, 5]: 0.0491
- Total Impurity (average sum of ratios area of each impurity/area of toluene) [1, 5]: 0.3304
- HFIP (average ratio area of HFIP/area of toluene) [1, 6]: 0.6680
- Total Impurity (average sum of ratios area of each impurity/area of toluene) [1, 6]: 31.65
- HFIP (average ratio area of HFIP/area of toluene) [1, 7]: 0
- Total Impurity (average sum of ratios area of each impurity/area of toluene) [1, 7]: 0.3293
- HFIP (average ratio area of HFIP/area of toluene) [1, 8]: 0.05996
- Total Impurity (average sum of ratios area of each impurity/area of toluene) [1, 8]: 0.3925
- HFIP (average ratio area of HFIP/area of toluene) [1, 9]: 0.04474
- Total Impurity (average sum of ratios area of each impurity/area of toluene) [1, 9]: 0.3546
- HFIP (average ratio area of HFIP/area of toluene) [1, 10]: 0.04072
- Total Impurity (average sum of ratios area of each impurity/area of toluene) [1, 10]: 0.2823
- HFIP (average ratio area of HFIP/area of toluene) [1, 11]: 0.04694
- Total Impurity (average sum of ratios area of each impurity/area of toluene) [1, 11]: 0.2925
- HFIP (average ratio area of HFIP/area of toluene) [1, 12]: 0.04603
- Total Impurity (average sum of ratios area of each impurity/area of toluene) [1, 12]: 0.3158
- HFIP (average ratio area of HFIP/area of toluene) [1, 13]: 0.04038
- Total Impurity (average sum of ratios area of each impurity/area of toluene) [1, 13]: 0.3800
- HFIP (average ratio area of HFIP/area of toluene) [1, 14]: 0.04353
- Total Impurity (average sum of ratios area of each impurity/area of toluene) [1, 14]: 0.3189
- HFIP (average ratio area of HFIP/area of toluene) [1, 15]: 0.04159
- Total Impurity (average sum of ratios area of each impurity/area of toluene) [1, 15]: 0.3061
- HFIP (average ratio area of HFIP/area of toluene) [1, 16]: 0.04236
- Total Impurity (average sum of ratios area of each impurity/area of toluene) [1, 16]: 0.3235
- HFIP (average ratio area of HFIP/area of toluene) [1, 23]: 0.00338
- Total Impurity (average sum of ratios area of each impurity/area of toluene) [1, 23]: 0.3236
- HFIP (average ratio area of HFIP/area of toluene) [1, 24]: 0.02051
- Total Impurity (average sum of ratios area of each impurity/area of toluene) [1, 24]: 0.3963
- saturation level in sevoflurane [2]: around 2.5%
- degradation of sevoflurane by alumina [4, 19]: didn't show any degradation
- Compound A [4, 20]: 11.3 µg/g
- Purity [4, 20]: 99.9774%
- Single impurity [4, 20]: 61.7 µg/g
- Total Impurity [4, 20]: 226.3 µg/g
Compound: CC(O)CO (centres unmarked) [Propylene glycol, 1,2-propanediol]
